Converted amounts (≈) assume the structure as drawn. “And” between values parts separate entries of the source, which are not always exact repeats. Identical values can stand only once. Like-named read-outs stand apart in the source and are kept apart here. Residues, ends and D or L forms follow the SMILES beside them.
What was measured:
[1] = Distribution, accumulation and metabolism in mouse kidneys (ME-SALDI-MS imaging, histology); format: in vivo; conditions: 10 μmol/kg SC; for kidney histology, SQS scores: 6 doses Day 1 and 3 doses Day 2; for level at time molar: female, Swiss, mouse, in vivo, 10 umol/kg, 6 doses Day 1 and 3 doses Day 2, 2 h after last dose, read-out: Concentration in the kidney cortex region
Description: At 2 h after the last dose on Day 2, mice were rapidly euthanized. The left kidney was collected, flash-frozen in liquid nitrogen, and stored at -80 C for MS imaging analysis. The right kidney was fixed in 10% formalin for histological examination (Histopathology and Organ Pathology Unit at the University of Melbourne). The level of histological damage to the kidneys was graded as previously described. […] A total of 1 μL was spotted onto electrochemically etched, porous-silicon semiconductor substrates for desorption/ionization on silicon (DIOS)[39]. […] For lipopeptide distribution in mouse kidneys, serially sectioned 8-μm frozen slices of the kidney were loaded onto DIOS substrates and coated with a thin layer of α-CHCA using a matrix sprayer (TM-Sprayer, HTX) for MSI analysis. […] Mounted tissue was scanned for imaging alignment (Epson Perfection […]) and calibrated as previously described. Resulting polymyxin maps were visualized and normalized against the total ion current (TIC) of each section using IonView software (Shimadzu). Lipopeptide accumulation in mouse kidneys was determined by simultaneous […] analysis of kidney tissue from treated animals and serial dilutions of the drug deposited on control kidney tissue. […] The signal intensities were compared to the corresponding concentration standard curve to calculate the concentration of lipopeptide present. Putative metabolites in the kidneys treated with lipopeptides were identified by […]. Control kidney sections were used to differentiate lipopeptide metabolites from endogenous metabolites and MS/MS data from lipopeptide standards were used to differentiate lipopeptide metabolites from the parent ion generated via CID processed in the acquisition software (MALDI Solutions, Shimadzu). Levels of accumulated lipopeptide metabolites were determined by normalization to the parent ion in MSI data.

[2] = tested on: K. pneumoniae FADDI-KP032; format: cell-based, Klebsiella pneumoniae
Summary of the method: (§1)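 Each strain is tested in cation-adjusted Mueller–Hinton broth using the micro-dilution technique, and growth inhibition gives the MIC.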

[3] = tested on: K. pneumoniae FADDI-KP065; format: cell-based, Klebsiella pneumoniae
Summary of the method: as §1

[4] = tested on: Swiss mice; assay: Acute toxicity in mice (maximum tolerated dose, IV bolus); format: in vivo, mouse; conditions: replicates 1-4
Description: (§2) Lipopeptide solutions were prepared in 0.9% saline and stored at 4 °C before use. Swiss mice (female, 7-week-old, 22–28 g) were used in the study. A mouse was administered an intravenous bolus of the lipopeptide (mg/kg free base) through a lateral tail vein (≤0.1 mL). After the injection, the mouse was released back into the cage and monitored for clinical signs of toxicity from 0 to 24 h after injection as follows: every 10 min in the first 2 h, every half hour from 2 to 4 h, every hour from 4 to 12 h, and every 2 h from 12 to 24 h.

[5] = as above; format: in vivo, mouse; conditions: mouse, in vivo, iv, single IV bolus dose, replicates 1-4; read-out: MTD, single replicate
Description: as §2

[6] = tested on: P. aeruginosa ATCC 27853; assay: Neutropenic mouse bloodstream infection model; format: in vivo; conditions: single IV dose 4 mg/kg; for Log10 CFU/mL blood at 4 h, Mean / Δlog10 CFU/mL blood (mean) / Log10 CFU/mL blood at 4 h, single mouse: 4 h; for Δlog10 CFU/mL blood (mean): treated minus control, mean of replicates; for Δlog10 CFU/mL blood (mean) / Log10 CFU/mL blood at 4 h, single mouse / Delta Log10 CFU/mL blood at 4 h, single mouse: 4 mg/kg; for Delta Log10 CFU/mL blood at 4 h, single mouse: treated mouse minus mean of vehicle mice
Summary of the method: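 Female Swiss mice made neutropenic with cyclophosphamide (150 mg/kg day −4, 100 mg/kg day −1), infected IV with 50 µL of 4 × 10^8 CFU/mL. Lipopeptide 4 mg/kg (free base) IV at 2 h post-inoculation, n = 3. Efficacy = Δlog10 CFU/mL blood versus saline at 4 h post-dose.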

[7] = tested on: A. baumannii FADDI-AB034; format: cell-based, Acinetobacter baumannii
Summary of the method: as §1

[8] = tested on: A. baumannii FADDI-AB030; format: cell-based, Acinetobacter baumannii
Summary of the method: as §1

[9] = tested on: A. baumannii ATCC 19606; format: cell-based, Acinetobacter baumannii
Summary of the method: (§3)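 Broth microdilution, CaMHB; MIC read as the antibacterial endpoint against ATCC reference strains and clinical isolates.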

[10] = tested on: P. aeruginosa FADDI-PA038; format: cell-based, Pseudomonas aeruginosa
Summary of the method: as §1

[11] = tested on: P. aeruginosa ATCC 27853; format: cell-based, Pseudomonas aeruginosa
Summary of the method: as §3

[12] = tested on: P. aeruginosa FADDI-PA025; format: cell-based, Pseudomonas aeruginosa
Summary of the method: as §1

[13] = tested on: Swiss mice, kidney; assay: Nephrotoxicity in mice (kidney histopathology); format: in vivo, mouse; conditions: for Kidney histopathology (SQS Score): 72 mg/kg/d subcutaneously in six divided doses every 2 h, n = 3; for Kidney histopathology, mice with the SQS score: mouse, in vivo
Summary of the method: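 Female Swiss mice (7-week-old, 22–28 g) received lipopeptides in saline either s.c. at 12 mg/kg ×6 every 2 h (total 72 mg/kg, n = 3) or i.p. at 20 or 25 mg/kg ×6 every 2 h (total 120 mg/kg, n = 6; 150 mg/kg, n = 3). Right kidney collected 20 h after last dose, fixed in 10% buffered formalin (pH 7.4), histology scored blinded.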

Structure (SMILES)	kidney histology, SQS scores [1]	level at time molar [1] [µM]	Log10 CFU/mL blood at 4 h, Mean [6] [Log10 CFU/mL blood]	Δlog10 CFU/mL blood (mean) [6] [log10 CFU/mL blood]	Log10 CFU/mL blood at 4 h, single mouse [6]	Delta Log10 CFU/mL blood at 4 h, single mouse [6]	MIC K. pneumoniae FADDI-KP032 ([2]; FADDI-KP032) [mg/L]	MIC K. pneumoniae FADDI-KP065 ([3]; FADDI-KP065) [mg/L]	MIC A. baumannii FADDI-AB034 ([7]; FADDI-AB034) [mg/L]	MIC A. baumannii FADDI-AB030 ([8]; FADDI-AB030) [mg/L]	MIC A. baumannii ATCC 19606 ([9]; ATCC 19606) [mg/L]	Kidney histopathology (SQS Score) [13]	Kidney histopathology, mice with the SQS score [13]	MIC P. aeruginosa FADDI-PA038 ([10]; FADDI-PA038) [mg/L]	MIC P. aeruginosa ATCC 27853 ([11]; ATCC 27853) [mg/L]	MIC P. aeruginosa FADDI-PA025 ([12]; FADDI-PA025) [mg/L]	further results
CC[C@H](C)CCCCC(=O)N[C@@H](CCN)C(=O)N[C@H](C(=O)N[C@@H](CCN)C(=O)N[C@H]1CCNC(=O)[C@H]([C@@H](C)O)NC(=O)[C@H](CCN)NC(=O)[C@H](CCN)NC(=O)[C@H](CC(C)C)NC(=O)[C@@H](CC(C)C)NC(=O)[C@H](CCN)NC1=O)[C@@H](C)O [colistin A] (HELM PEPTIDE1{[CC[C@H](C)CCCCC(=O)[*:2]].[Dab].T.[Dab].[Dab].[Dab].[dL].L.[Dab].[Dab].T}$PEPTIDE1,PEPTIDE1,5:R3-11:R2$$$V2.0)	+5 (SQS + 5 = severe damage (overall score, >60))	86.7															
CC[C@H](C)CCCCC(=O)N[C@@H](CCN)C(=O)N[C@H](C(=O)N[C@@H](CCN)C(=O)N[C@H]1CCNC(=O)[C@H]([C@@H](C)O)NC(=O)[C@H](CCN)NC(=O)[C@H](CCN)NC(=O)[C@H](CC(C)C)NC(=O)[C@@H](Cc2ccccc2)NC(=O)[C@H](CCN)NC1=O)[C@@H](C)O [polymyxin B1] (HELM PEPTIDE1{[CC[C@H](C)CCCCC(=O)[*:2]].[Dab].T.[Dab].[Dab].[Dab].[dF].L.[Dab].[Dab].T}$PEPTIDE1,PEPTIDE1,5:R3-11:R2$$$V2.0)	+5 (SQS + 5 = severe damage (overall score, >60))	38.2															
CC[C@@H]1NC(=O)[C@@H](CC(C)C)NC(=O)[C@H](CCN)NC(=O)[C@@H](NC(=O)[C@H](CN)NC(=O)[C@@H](NC(=O)[C@H](CCN)NC(=O)c2ccccc2)[C@@H](C)O)CCNC(=O)[C@H]([C@@H](C)O)NC(=O)[C@H](CCN)NC(=O)[C@H](CCN)NC1=O [Lipopeptide F379] (HELM PEPTIDE1{[O=C(c1ccccc1)[*:2]].[Dab].T.[NC[C@H](N[*:1])C(=O)[*:2]].[Dab].[Dab].[dL].[Abu].[Dab].[Dab].T}$PEPTIDE1,PEPTIDE1,5:R3-11:R2$$$V2.0)			5.27	−2.67	5.36 Log10 CFU/mL blood and 5.17 Log10 CFU/mL blood	-2.58 Log10 CFU/mL blood and -2.77 Log10 CFU/mL blood											MIC K. pneumoniae FADDI-KP032 ([2]; carbapenem-resistant isolate): 2 mg/L (≈ 1.83 µM); MIC K. pneumoniae FADDI-KP065 ([3]; carbapenem-resistant isolate): 2 mg/L (≈ 1.83 µM); MTD, single replicate [4]: 23 mg/kg and 21.3 mg/kg and 16 mg/kg; MTD [5]: 26 mg/kg; MIC A. baumannii FADDI-AB034 ([7]; carbapenem-resistant isolate): 8 mg/L (≈ 7.33 µM); MIC A. baumannii FADDI-AB030 ([8]; carbapenem-resistant isolate): 2 mg/L (≈ 1.83 µM); MIC A. baumannii ATCC 19606 [9]: 8 mg/L (≈ 7.33 µM); MIC P. aeruginosa FADDI-PA038 ([10]; carbapenem-resistant isolate): 4 mg/L (≈ 3.67 µM); MIC P. aeruginosa ATCC 27853 [11]: 1 mg/L (≈ 0.916 µM); MIC P. aeruginosa FADDI-PA025 ([12]; MDR clinical isolate): >32 mg/L
CCCCCCCC(=O)N[C@@H](CCN)C(=O)N[C@H](C(=O)N[C@@H](CCN)C(=O)N[C@H]1CCNC(=O)[C@H]([C@@H](C)O)NC(=O)[C@H](CCN)NC(=O)[C@H](CCN)NC(=O)[C@H]([C@@H](C)O)NC(=O)[C@@H](CC(C)C)NC(=O)[C@H](CCN)NC1=O)[C@@H](C)O [Lipopeptide F100] (HELM PEPTIDE1{[CCCCCCCC(=O)[*:2]].[Dab].T.[Dab].[Dab].[Dab].[dL].T.[Dab].[Dab].T}$PEPTIDE1,PEPTIDE1,5:R3-11:R2$$$V2.0)			4.44	−3.01	4.50 Log10 CFU/mL blood and 4.28 Log10 CFU/mL blood and 4.53 Log10 CFU/mL blood	-2.95 Log10 CFU/mL blood and -3.17 Log10 CFU/mL blood and -2.91 Log10 CFU/mL blood	0.25 (≈ 0.219 µM)	<0.125	2 (≈ 1.75 µM)	1 (≈ 0.875 µM)	4 (≈ 3.5 µM)	0 (SQS 0 = no significant change (overall score, <1))	3/3	0.5 (≈ 0.437 µM)	0.5 (≈ 0.437 µM)	>32	
CCCCCCCC(=O)N[C@@H](CCN)C(=O)N[C@H](C(=O)N[C@H](CN)C(=O)N[C@H]1CCNC(=O)[C@H]([C@@H](C)O)NC(=O)[C@H](CCN)NC(=O)[C@H](CCN)NC(=O)[C@H]([C@@H](C)O)NC(=O)[C@@H](CC(C)C)NC(=O)[C@H](CCN)NC1=O)[C@@H](C)O [Lipopeptide F300] (HELM PEPTIDE1{[CCCCCCCC(=O)[*:2]].[Dab].T.[NC[C@@H](N[*:1])C(=O)[*:2]].[Dab].[Dab].[dL].T.[Dab].[Dab].T}$PEPTIDE1,PEPTIDE1,5:R3-11:R2$$$V2.0)			5.31	−1.53	5.76 Log10 CFU/mL blood and 5.85 Log10 CFU/mL blood and 4.64 Log10 CFU/mL blood and 4.99 Log10 CFU/mL blood	-1.08 Log10 CFU/mL blood and -1.00 Log10 CFU/mL blood and -2.20 Log10 CFU/mL blood and -1.85 Log10 CFU/mL blood	<0.125	<0.125	<0.125	<0.125	0.25 (≈ 0.221 µM)	+2 (SQS + 2 = mild to moderate damage (overall score, 15 to <30))	3/3	1 (≈ 0.885 µM)	0.25 (≈ 0.221 µM)	4 (≈ 3.54 µM)	MIC, No Survanta ([11]; ATCC 27853): 1 mg/L (≈ 0.885 µM)
